In patent publication US20070148660A1, “Treatment of maladaptive substance use with H-ras antagonists” (The Regents of the University of California, priority 2005, published 2007):

Legend:
[1] = tested on: Ras; assay: Ras activity assay (Raf-1-Ras binding domain GST-agarose), hippocampal slices; format: cell-based, mouse
Experimental: The treated hippocampal homogenates (250 μg) were incubated with […] of Raf-1-Ras binding domain GST-agarose for 45 min at 4° C. while rotating, as per manufacturer's instructions. […] Results were quantified by NIH Image 1.61.

[2] = tested on: NMDAR; assay: NMDAR-mediated EPSCs, whole-cell voltage clamp, hippocampal CA1; format: cell-based, mouse; conditions: for effect on the ethanol-induced inhibition of NMDAR-mediated EPSCs: inhibitor applied before ethanol, hippocampal slices
Experimental: Electrophysiological recordings were performed in C57BL/6J mice ranging from P21 to P26. Briefly, mice were anesthetized with halothane and decapitated as per University of California, San Francisco animal care guidelines. Horizontal sections of the hippocampus ([…]) were prepared with a vibratome (Leica, Nussloch, Germany). Slices were placed in a holding chamber and allowed to recover for at least 1 hr before being placed in the recording chamber and superfused with aCSF saturated with 95% O2/5% CO2 and containing (in mM): 119 NaCl, 1.6 KCl, 1.0 NaH2PO4, 1.3 MgCl2 (for EPSCs) or 0.01 MgCl2 (for field excitatory postsynaptic potentials (fEPSPs)), 2.5 CaCl2, 26.2 NaHCO3 and 11 glucose. Picrotoxin (100 μM) was added to block gamma-aminobutyric acid-A (GABAA) receptor-mediated inhibitory synaptic transmission, and CNQX (for EPSCs) or NBQX (for fEPSPs) (10 μM) was added to block α-amino-3-hydroxy-5-methyl-4-isoxalepropionate (AMPA)/Kainate receptors. Cells were visualized using infrared differential interference contrast video microscopy.
Whole-cell voltage clamp-recordings were made using an Axopatch ID or a MultiClamp 700A amplifier (Axon Instruments, Union City, Calif.). Electrodes (3.5-5.0 MΩ) contained (in mM): 120 Cesium methansulfonate, 20 HEPES, 0.4 EGTA, 2.8 NaCl, 5 TEA-Cl, 2.5 MgATP, and 0.25 NaGTP (pH 7.2-7.3), buffer at 270-285 mOsm. Series resistance (10-30 MΩ) and input resistance were monitored on-line with a 4 mV depolarizing step (50 ms) given just after every afferent stimulus. Recordings from the CA1 region of the hippocampus were obtained with a bipolar stimulating electrode that was placed 100-300 μm rostral to the recording electrode and was used to stimulate excitatory afferents at 0.1 Hz. Neurons were voltage-clamped at +40 mV to evoke NMDAR-mediated EPSCs. At this potential, NMDARs have a maximal open probability and the Mg^2+ block is removed. EPSCs were filtered at 2 kHz, digitized at 5-10 kHz and collected on-line using Igor Pro software (Wavemetrics, Lake Oswego, Oreg.) or pClamp 9 (Axon Instruments, Union City, Calif.). NMDAR example traces were constructed by averaging 20 EPSCs (200 sec) elicited at +40 mV during baseline, ethanol application, drug application or drug application with ethanol. To calculate the decay time (τ), Igor Pro software was used to fit exponential decay curves to averaged NMDAR-mediated EPSCs using the formula: y=A1exp(−invTau1*x)+A2exp(−invTau2X).

[3] = target: Raf-1-Ras binding domain GST agarose (UniProt P04049); assay: pull-down of hippocampal homogenates with Raf-1-Ras binding domain GST-agarose, Western blot with pan anti-Ras; ratio of Ras-GTP over total Ras, normalized to the control

With `[Cl-].[K+]` [KCl] as the compound, how does the Ras activity ([1]; 50 mM KCl, 5 min, hippocampal slices) read?
Its Ras activity is “increases Ras activity”.

`C[C@H](NC(c1cccc2[nH]c(=O)c(=O)[nH]c12)P(=O)(O)O)c1ccc(Br)cc1` (some centres unmarked) [NVP-AAM077, reference compound] was tested. Which “decrease of NMDAR EPSCs” value ([2]; NVP-AAM077 0.4 μM, n=6) did it give?
Its value is 55±4%.

And the “NMDAR-mediated EPSCs in slices first treated with ethanol and ifenprodil” value ([2]; NVP-AAM077 application, data not shown)?
The value was “no effect”.

What about the weighted decay time ([2]; in the presence of NVP-AM077 (0.4 μM), n=6, baseline 43.0±2.1 ms) of the same compound?
The weighted decay time was 68.7 ± 9.4 ms.

And the “effect on the ethanol-induced inhibition of NMDAR-mediated EPSCs” value [2]?
Its value is “occluded”.

`CC(C(O)c1ccc(O)cc1)N1CCC(Cc2ccccc2)CC1` (centres unmarked) [ifenprodil, reference compound] was tested. Which “decrease of NMDAR EPSCs” value ([2]; ifenprodil 3 μM, n=5) did it give?
The value was 37+5%.

And the “NMDAR-mediated EPSCs in slices treated with both ethanol and NVP-AAM077” value ([2]; ifenprodil application, data not shown)?
The value was “further inhibition”.

What about the weighted decay time ([2]; in the presence of ifenprodil (3 μM), n=7, baseline 41.2±3.4 ms) of the same compound?
The weighted decay time was 34.7 ± 4.5 ms.

And the “effect on the ethanol-induced inhibition of NMDAR-mediated EPSCs” value [2]?
The value was “did not”.

For “GTP-bound active Ras, endogenous in mouse hippocampal slices (from UniProt Q61411 1-186)”, which fold increase of Ras-GTP pulled down, ethanol-treated over control slices [3] is on record?
Its fold increase of Ras-GTP pulled down, ethanol-treated over control slices is 2 fold.

For “Tat-peptide: Tat-peptide (YGRKKRRQRRR: SEQ ID NO:2) synthesized by Syn Pep, used as a control”, which “effect on ethanol-mediated increase in endogenous Ras activity” value ([1]; pre-incubation 2 hrs (Tat-H-Ras DN printed 2 mM, Tat-peptide 2 μM), then 100 mM ethanol 15 min) is on record?
Its value is “did not”.
